Format in all cases: in vivo
The test system of assay [1] is rabbit endometrial transformation. Put plainly: Rabbit endometrial transformation (Clauberg) assay. The note with it: for ED50: Oryctolagus cuniculus, 120 h, read-out: Rabbit Clauberg Assay estimated ED50 (AED50). Here is the method: In addition to the rat progestational models described above, NSP-989 was also evaluated in the Clauberg model, a classic progestational assay in the rabbit endometrial transformation model [McPhail MK, “The assay of progestin.” J Physiol. 1934; 83:145-1567]. Briefly, immature female New Zealand White rabbits (˜1 kg body weight) were injected subcutaneously with 5 μg 17β-estradiol (E2)/rabbit/day for six consecutive days. Beginning 24 hours after the final E2 injection, vehicle alone or test compounds were given orally for (5) five consecutive days. Progestational activity was determined by increases in uterine weight and endometrial glandular arborization (McPhail Index).

For assay [2], the system named is estrogen-induced C3 expression in the uterine epithelium. The assay is described as follows: Adult ovariectomized rat uterine C3 model. The note with it: po, once daily for 2 days, with EE 0.08 mg/kg on day 2; for ED50: Rattus norvegicus, 48 h. Here is the method: The third model for PR agonist activity was the adult ovariectomized rat uterine C3 model. This assay evaluates the ability of a progestin to block estrogen-induced C3 expression in the uterine epithelium.
Ovariectomized female, 60 day-old Sprague-Dawley rats were obtained from Harlan (Indianapolis, Ind.). Ovariectomies were performed by the supplier a minimum of 8 days prior tobefore treatment. The rats were randomized and placed in groups of 6. The animals were treated once daily for (2) two days orally by gavage (p.o.) in a volume of 0.5 mL. On the second day of treatment, the animals were also treated with EE (0.08 mg/kg body weight (BW)) orally by gavage. Approximately 24 hours after the final treatment, the animals were euthanized by CO2 asphyxiation. The uteri were then removed, stripped of remaining fat and mesentery, weighed, and snap-frozen on dry ice. Total RNA was isolated from the uteri using the Trizol Reagent (GibcoBRL) as described by the manufacturer. Real-time reverse transcription polymerase chain reaction (RT-PCR) as previously reported [Sampath D, et al., “Aberrant expression of Cyr61, a member of the CCN (CTGF/Cyr61/Cef10/NOVH) family, and dysregulation by 17b-estradiol and basic fibroblast growth factor in human uterine leiomyomas” J Clin Endocrinol Metab. 2001; 86:1707-1715] was used to quantitate complement C3 expression. Briefly, RNA samples were DNAse-I treated using a DNA-free kit (Ambion). A total of 50 ng of RNA was analyzed in triplicate using C3 specific primer pair (5′primer […] [SEQ ID NO: 1], 3]primer […] [SEQ ID NO: 2]) and customized probe (6FAM-[…]-TAMRA [SEQ ID NO: 3]). C3 messenger RNA (mRNA) levels were normalized to 18s 18S ribosomal RNA contained within each sample reaction using primers and probe supplied by PE Applied Biosystems.

The target in a further assay is T1, progesterone receptor (Rattus norvegicus, UniProt Q63449).
T1 construct: the uterine decidualization assay in adult ovariectomized rats; from tissue; host or cells: uterus of live ovariectomized Sprague-Dawley rats (in vivo)
T1 sequence (Q63449 1-923): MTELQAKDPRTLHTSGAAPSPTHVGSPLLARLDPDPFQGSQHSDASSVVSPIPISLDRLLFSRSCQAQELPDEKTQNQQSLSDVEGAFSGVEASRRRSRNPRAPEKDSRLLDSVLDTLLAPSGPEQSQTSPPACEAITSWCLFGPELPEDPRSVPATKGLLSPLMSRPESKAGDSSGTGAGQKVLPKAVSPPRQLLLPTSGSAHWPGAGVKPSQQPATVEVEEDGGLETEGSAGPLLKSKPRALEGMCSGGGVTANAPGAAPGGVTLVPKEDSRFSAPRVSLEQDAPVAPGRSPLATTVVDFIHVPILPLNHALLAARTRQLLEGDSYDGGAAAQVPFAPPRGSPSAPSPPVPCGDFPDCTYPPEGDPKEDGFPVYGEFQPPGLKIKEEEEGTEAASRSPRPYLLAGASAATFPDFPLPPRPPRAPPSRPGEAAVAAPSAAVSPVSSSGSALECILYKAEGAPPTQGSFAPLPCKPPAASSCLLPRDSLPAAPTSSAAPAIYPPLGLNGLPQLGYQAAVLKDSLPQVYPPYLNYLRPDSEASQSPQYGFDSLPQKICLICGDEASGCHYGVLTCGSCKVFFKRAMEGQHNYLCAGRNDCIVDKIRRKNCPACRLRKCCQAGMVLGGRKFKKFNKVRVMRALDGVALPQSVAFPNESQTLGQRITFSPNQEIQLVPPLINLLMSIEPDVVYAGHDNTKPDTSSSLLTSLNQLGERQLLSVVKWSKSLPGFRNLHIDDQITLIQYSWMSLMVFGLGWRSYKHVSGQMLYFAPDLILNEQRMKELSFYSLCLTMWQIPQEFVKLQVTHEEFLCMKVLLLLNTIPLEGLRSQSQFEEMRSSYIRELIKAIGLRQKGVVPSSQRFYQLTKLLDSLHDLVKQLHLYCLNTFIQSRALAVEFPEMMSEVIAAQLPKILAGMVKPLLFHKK
Put plainly: Rat uterine decidualization assay in adult ovariectomized rats. The note with it: for ED50: rat, read-out: Rat Decidual Assay ED50. The method, then:
The second rat model to determine progestational activity is the uterine decidualization assay in adult ovariectomized rats.
Briefly, mature female Sprague-Dawley rats (˜220 g) were ovariectomized at least 10 days prior to treatment to reduce circulating sex steroids. […] Approximately 24 hours after the third daily treatment, decidualization was induced in onel uterine horn of each anesthetized rat by scratching the antimesometrial luminal epithelium with a blunt 21-gauge needle. The contralateral horn was not scratched and served as a non-stimulated control. Animals were euthanized by CO2 asphyxiation 24 hoursr following the final treatment. The uteri were removed, and trimmed of fat, and the decidualized (D) and control (C) horns were weighed separately. The decidual response is expressed as D/C.

The test system of assay [3] is ovulation in adult female rats. The assay is described as follows: Rat ovulation inhibition assay. Particulars: po, once daily for 4 days, Sprague-Dawley rats. The method, then:
The ovulation inhibition assay measures a compound's ability to inhibit ovulation in adult female rats. This activity is essential for contraceptive efficacy.
Random cycling mature female Sprague-Dawley rats (˜200 g) were obtained from Charles River Laboratory (Boston, Mass.). Rats were synchronized for estrus with 2 μg of LHRH (in phosphate buffered saline containing 0.1% bovine serum albumin) administered subcutaneously (sc) per rat at 0900 h and again at 1600 h. Animals were allowed to rest for 8 days before the administration of test compounds. Animals were then grouped, with 7 to 9 rats per treatment group. The morning of the ninth day following LHRH treatment, the rats were treated with test compounds once daily, by gavage. This continued for 4 consecutive days. The animals were euthanized the morning following the last treatment. Oviducts were removed, placed between 2 glass slides, and viewed through a dissecting microscope to count ova. The number of animals presenting ova in the oviduct from each treatment group and the number of ova in the oviduct of each animal were recorded.

The mark [4] stands for this setting: po, 5 days, estradiol-primed immature rabbits, limited dose response studies.
Where [5] appears, read: po, once daily for 7 days, ovariectomized rats.

“And” between values parts separate entries of the source, which are not always exact repeats. Equal values may be shown once.

As usually defined, the ED50 is the dose at which the effect has come halfway, by size or by number of responders.

Consider `Cn1c(C#N)ccc1-c1ccc2c(c1)C(C)(C)OC(=S)N2` [NSP-989, 5-(4,4-Dimethyl-2-thioxo-1,4-dihydro-2H-benzo[d] [1,3]oxazin-6-yl)-1-methyl-1H-pyrrole-2-carbonitrile], for which the ED50 in assay [1] (setting [4]) is 0.001 mg/kg; in assay [2], 0.0005 mg/kg; at progesterone receptor (setting [5]) it was 0.01 mg/kg. Further, the “Potency in Clauberg assay relative to MPA (fold more potent)” value in assay [1] (versus MPA) is on record as “about 30 fold”. In addition, on progesterone receptor (versus MPA), the “Potency in decidualization relative to MPA (fold more potent)” value was “approximately 40 fold”. Also, the “Potency in decidualization relative to TMG (fold more potent)” value on progesterone receptor (versus TMG) is about 100 fold. For the same compound, the “Rat Ovulation Inhibition Assay ED100” value in assay [3] stood at 0.03 mg/kg.

`C[C@H](O)C(=O)[C@@]1(C)CC[C@H]2[C@@H]3CCC4=CC(=O)CCC4=C3CC[C@@]21C` [TMG, trimegestone]: the “Rabbit Clauberg Assay estimated ED50 (AED50)” value in assay [1] (setting [4]) was 1 µg/kg. Further, the “Rat C3 Assay ED50” value in assay [2] was 5 µg/kg. Also, at progesterone receptor (setting [5]), the “Rat Decidual Assay ED50” value was 1.0 mg/kg. For the same compound, the “Rat Ovulation Inhibition Assay ED100” value in assay [3] was 1 mg/kg and 1.0 mg/kg.

With `CC(=O)O[C@]1(C(C)=O)CC[C@H]2[C@@H]3C[C@H](C)C4=CC(=O)CC[C@]4(C)[C@H]3CC[C@@]21C` [MPA, medroxyprogesterone acetate], the ED50 in assay [1] (setting [4]) is 0.03 mg/kg; in assay [2], 0.03 mg/kg; on progesterone receptor (setting [5]), 0.4 mg/kg. Further, in assay [3], the “Rat Ovulation Inhibition Assay ED100” value was 1 mg/kg and 1.0 mg/kg.
